In US10087148B2, “Quinazolines as biogenic amine transport modulators” (THE UNITED STATES OF AMERICA AS REPRESENTED BY THE …, priority 2014, dated 2018):
Entries after “also recorded” stand apart in the source; their conditions may differ.

Target: dopamine transporter (DAT) (Rattus norvegicus (Rat), UniProt P23977)
Experiment: [3H]dopamine (DA) uptake inhibition in rat brain (caudate) synaptosomes
Format: biochemical
Settings: for DA Uptake Emax / EC50: rat caudate synaptosomes, 5 nM [3H]dopamine, mean ± SD; for One-Site Emax / Two-Site Emax-1 / Two-Site Emax-2: [3H]DA uptake; for One-Site Emax: one-component fit; for Two-Site Emax-1 / Two-Site Emax-2: two-component fit; for Two-Site Emax-1: component 1; for Two-Site Emax-2: component 2
Protocol: Uptake inhibition assay for the dopamine transporter was conducted in rat brain synaptosomes as described elsewhere with minor modifications (Rothman et al., Synapse 39, 32-41 (2001)). Freshly removed caudate was homogenized in 10% ice-cold sucrose with 12 strokes of a hand-held Potter-Elvehjem homogenizer followed by centrifugation at 1000×g for 10 min. The supernatants were saved on ice and used immediately. Transporter activity was assessed using 5 nM [^3H]dopamine. The assay buffer was Krebs-phosphate buffer containing 154.4 mM NaCl, 2.9 mM KCl, 1.1 mM CaCl2, 0.83 mM MgCl2, 5 mM glucose, 1 mg/mL ascorbic acid, and 50 μM pargyline. The selectivity of the uptake assay for DAT was optimized by including 100 nM citalopram and 100 nM desipramine as blockers of SERT and NET in the sucrose solution and assay buffer. Uptake inhibition assays were conducted at 25° C. and were initiated by adding 100 μl of tissue to 900 μL assay buffer containing test drug and [^3H]dopamine. Test drugs were diluted in assay buffer containing 1 mg/mL bovine serum albumin. Nonspecific uptake was measured by incubating in the presence of 10 μM indatraline. The reactions were stopped after 15 minutes by rapid vacuum filtration with a cell harvester (BRANDEL) over GF/B filters (Whatman) presoaked in wash buffer maintained at 25° C. (10 mM Tris-HCl, pH 7.4/150 mM NaCl). Filters were rinsed with 6 mL wash buffer and retained tritium was quantified by a MicroBeta liquid scintillation counter (PerkinElmer) after overnight extraction in 0.6 mL of liquid scintillation cocktail (Cytoscint, ICN). The data from three experiments were pooled and fit to a dose-response curve equation (using Kaleidagraph), to yield an Emax and EC50 value.
All of the test compounds were synthesized as described herein. Next, 8-point dose-response curves were generated for each compound (1-20,000 nM) in the [^3H]DA uptake assay. The data from three experiments were pooled and fit to a dose-response curve equation (using KaleidaGraph; Synergy Software, Reading, Pa.) to yield an Emax and IC50 value. […] Selected compounds were also tested for their ability to inhibit [^3H]WIN35428 binding to rat caudate DAT.

Sequence of dopamine transporter (DAT) (P23977 whole entry): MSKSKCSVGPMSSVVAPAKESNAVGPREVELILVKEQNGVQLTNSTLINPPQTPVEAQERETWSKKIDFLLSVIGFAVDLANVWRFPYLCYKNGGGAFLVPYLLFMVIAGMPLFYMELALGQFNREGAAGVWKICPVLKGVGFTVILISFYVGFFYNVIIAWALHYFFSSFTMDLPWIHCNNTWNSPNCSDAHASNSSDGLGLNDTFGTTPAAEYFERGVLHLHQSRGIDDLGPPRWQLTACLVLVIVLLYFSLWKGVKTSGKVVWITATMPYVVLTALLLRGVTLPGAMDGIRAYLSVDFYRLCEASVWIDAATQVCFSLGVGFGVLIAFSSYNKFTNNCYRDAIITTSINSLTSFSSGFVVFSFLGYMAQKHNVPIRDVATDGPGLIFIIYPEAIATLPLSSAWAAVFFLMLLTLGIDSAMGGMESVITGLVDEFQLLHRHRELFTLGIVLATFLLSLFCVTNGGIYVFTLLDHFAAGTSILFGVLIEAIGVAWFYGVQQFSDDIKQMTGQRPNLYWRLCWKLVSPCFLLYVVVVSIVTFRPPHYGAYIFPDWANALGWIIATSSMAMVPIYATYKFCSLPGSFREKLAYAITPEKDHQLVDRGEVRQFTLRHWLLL

CS(=O)(=O)Nc1ccc(-c2nc(NCC(c3cccnc3)c3ccc[nH]3)c3ccccc3n2)cc1 (stereo not drawn) [Compound 30, N-(4-(4-((2-(pyridin-3-yl)-2-(1H-pyrrol-2-yl)ethyl)amino)quinazolin-2-yl)phenyl)methanesulfonamide]
DA Uptake Emax: 79 ± 3 % I | EC50: 202 ± 42 nM

CN(C)c1ccc(-c2nc(NCC(c3cccnc3)c3ccc[nH]3)c3ccccc3n2)cc1 (stereo not drawn) [Compound 31, 2-(4-(dimethylamino)phenyl)-N-(2-(pyridin-3-yl)-2-(1H-pyrrol-2-yl)ethyl)quinazolin-4-amine]
DA Uptake Emax: 85 ± 4 % I | EC50: 47 ± 12 nM

CS(=O)(=O)Nc1ccc(-c2nc(NCC(c3ccccn3)c3ccc[nH]3)c3ccccc3n2)cc1 (stereo not drawn) [Compound 32, N-(4-(4-((2-(pyridin-2-yl)-2-(1H-pyrrol-2-yl)ethyl)amino)quinazolin-2-yl)phenyl)methanesulfonamide]
DA Uptake Emax: 73 ± 3 % I | EC50: 379 ± 80 nM

CN(C)c1ccc(-c2nc(NCC(c3ccccn3)c3ccc[nH]3)c3ccccc3n2)cc1 (stereo not drawn) [Compound 33, 2-(4-(dimethylamino)phenyl)-N-(2-(pyridin-2-yl)-2-(1H-pyrrol-2-yl)ethyl)quinazolin-4-amine]
DA Uptake Emax: 89 ± 4 % I | EC50: 65 ± 18 nM

CN(C)c1ccc(-c2nc(NCC(c3ccncc3)c3ccncc3)c3ccccc3n2)cc1 [Compound 34, N-(2,2-di(pyridin-4-yl)ethyl)-2-(4-(dimethylamino)phenyl)quinazolin-4-amine]
DA Uptake Emax: 78 ± 3 % I | EC50: 21 ± 5 nM

CS(=O)(=O)Nc1ccc(-c2nc(NCC(c3ccncc3)c3ccncc3)c3ccccc3n2)cc1 [Compound 35, N-(4-(4-((2,2-di(pyridin-4-yl)ethyl)amino)quinazolin-2-yl)phenyl)methanesulfonamide]
DA Uptake Emax: 70 ± 2 % I | EC50: 47 ± 10 nM

CN(C)c1ccc(-c2nc(NCCc3ccccc3)c3ccccc3n2)cc1 [Compound 36, 2-(4-(dimethylamino)phenyl)-N-phenethylquinazolin-4-amine]
Efficacy of [3H]DA (DAT) uptake inhibition, in words: fully inhibits; also recorded: full-efficacy | One-Site Emax: 100 ± 1.5 % I | Two-Site Emax-1: 76 ± 54 % I | Two-Site Emax-2: 27 ± 53 % I | DA Uptake Emax: 100 ± 1 % I | EC50: 156 ± 12 nM

CS(=O)(=O)Nc1ccc(-c2nc(NCCc3ccccc3)c3ccccc3n2)cc1 [Compound 37, N-(4-(4-(phenethylamino)quinazolin-2-yl)phenyl)methanesulfonamide]
DA Uptake Emax: 86 ± 6 % I | EC50: 159 ± 54 nM

CN(C)c1ccc(-c2nc(NCC(C)(c3ccccc3)c3ccccc3)c3ccccc3n2)cc1 [Compound 38, 2-(4-(dimethylamino)phenyl)-N-(2,2-diphenylpropyl)quinazolin-4-amine]
DA Uptake Emax: 68 ± 3 % I | EC50: 15 ± 4 nM

CC(CNc1nc(-c2ccc(NS(C)(=O)=O)cc2)nc2ccccc12)(c1ccccc1)c1ccccc1 [Compound 39, N-(4-(4-((2,2-diphenylpropyl)amino)quinazolin-2-yl)phenyl)methanesulfonamide]
DA Uptake Emax: 67 ± 2 % I | EC50: 16 ± 3 nM

CN(C)c1ccc(-c2nc(NC(Cc3ccccc3)c3ccccc3)c3ccccc3n2)cc1 (stereo not drawn) [Compound 40, 2-(4-(dimethylamino)phenyl)-N-(1,2-diphenylethyl)quinazolin-4-amine]
DA Uptake Emax: 72 ± 2 % I | EC50: 40 ± 8 nM

CS(=O)(=O)Nc1ccc(-c2nc(NC(Cc3ccccc3)c3ccccc3)c3ccccc3n2)cc1 (stereo not drawn) [Compound 41, N-(4-(4-((1,2-diphenylethyl)amino)quinazolin-2-yl)phenyl)methanesulfonamide]
DA Uptake Emax: 69 ± 3 % I | EC50: 50 ± 14 nM

CS(=O)(=O)Nc1ccc(-c2nc(NC(CCc3ccccc3)c3ccccc3)c3ccccc3n2)cc1 (stereo not drawn) [Compound 42, N-(4-(4-((1,3-diphenylpropyl)amino)quinazolin-2-yl)phenyl)methanesulfonamide]
DA Uptake Emax: 72 ± 2 % I | EC50: 71 ± 11 nM

CN(C)c1ccc(-c2nc(NC(CCc3ccccc3)c3ccccc3)c3ccccc3n2)cc1 (stereo not drawn) [Compound 43, 2-(4-(dimethylamino)phenyl)-N-(1,3-diphenylpropyl)quinazolin-4-amine]
DA Uptake Emax: 70 ± 4 % I | EC50: 75 ± 22 nM

CC(C)C(CNc1nc(-c2ccc(N(C)C)cc2)nc2ccccc12)c1ccccc1 (stereo not drawn) [Compound 44, 2-(4-(dimethylamino)phenyl)-N-(3-methyl-2-phenylbutyl)quinazolin-4-amine]
DA Uptake Emax: 84 ± 5 % I | EC50: 30 ± 10 nM

CC(C)C(CNc1nc(-c2ccc(NS(C)(=O)=O)cc2)nc2ccccc12)c1ccccc1 (stereo not drawn) [Compound 45, N-(4-(4-((3-methyl-2-phenylbutyl)amino)quinazolin-2-yl)phenyl)methanesulfonamide]
DA Uptake Emax: 78 ± 4 % I | EC50: 20 ± 6 nM

CCN(CC)C(=O)[C@]1(c2ccccc2)C[C@@H]1CNc1nc(-c2ccc(N(C)C)cc2)nc2ccccc12 [Compound 46, (1R,2S)-2-(((2-(4-(dimethylamino)phenyl)quinazolin-4-yl)amino)methyl)-N,N-diethyl-1-phenylcyclopropanecarboxamide]
DA Uptake Emax: 93 ± 1 % I | EC50: 243 ± 18 nM

Cc1cc(NS(C)(=O)=O)ccc1-c1nc(NCC(c2ccncc2)c2ccncc2)c2ccccc2n1 [Compound 47, N-(4-(4-((2,2-di(pyridin-4-yl)ethyl)amino)quinazolin-2-yl)-3-methylphenyl)methanesulfonamide]
DA Uptake Emax: 67 ± 4 % I | EC50: 84 ± 25 nM

CN(C)c1ccc(-c2nc(NCC(Oc3ccccc3)c3ccccc3)c3ccccc3n2)cc1 (stereo not drawn) [Compound 48, 2-(4-(dimethylamino)phenyl)-N-(2-phenoxy-2-phenylethyl)quinazolin-4-amine]
DA Uptake Emax: 72 ± 3 % I | EC50: 42 ± 10 nM

CS(=O)(=O)Nc1ccc(-c2nc(NCC(Oc3ccccc3)c3ccccc3)c3ccccc3n2)cc1 (stereo not drawn) [Compound 49, N-(4-(4-((2-phenoxy-2-phenylethyl)amino)quinazolin-2-yl)phenyl)methanesulfonamide]
DA Uptake Emax: 67 ± 2 % I | EC50: 30 ± 5 nM

c1ccc(C(CNc2nc(-c3ccc4c(c3)CCN4)nc3ccccc23)c2ccccc2)cc1 [SRI-29986]
Efficacy of [3H]DA (DAT) uptake inhibition, in words: partial inhibitors | One-Site Emax: 75 ± 3 % I | Two-Site Emax-1: 37 × 10^8 ± 2.7 × 10^8 % I | Two-Site Emax-2: 37 × 10^8 ± 0.7 × 10^8 % I
